Measured values as given in US6667340B1, “Inhibitors of phosphatidyl myo-inositol cycle” (Arizona Board of Regents on behalf of the University of …, priority 1998, dated 2003).
“And” between values parts separate entries of the source, which are not always exact repeats. Identical values can stand only once. “Also recorded” adds a separate entry of the source. Like-named read-outs stand apart in the source and are kept apart here.

Columns and labels:
HT-29 colon cancer cells [1] = assay: HT-29 colony formation in soft agarose; assay type: cell-based, human; conditions: for IC50: HT-29 colonies in soft agarose, 7 days exposure, mean of 3 determinations ± S.E.
Description: Specifically, anti-tumor activity was assessed by growing HT-29 colon cancer cells colonies in soft agarose which were then exposed to compounds according to the invention for 7 days and the colonies then counted.

bovine PI-PLC = assay: In vitro inhibition of bovine PI-PLC; assay type: biochemical
PI-3kinase = conditions: previously found; cited from earlier work
human Akt = human Akt (Homo sapiens, UniProt P31749); assay: Inhibition of PDGF-stimulated Akt activation in transfected NIH 3T3 cells; assay type: cell-based; conditions: 6 hours exposure, listed as D-3-deoxy-PtdIns
Chain of human Akt (P31749 whole entry): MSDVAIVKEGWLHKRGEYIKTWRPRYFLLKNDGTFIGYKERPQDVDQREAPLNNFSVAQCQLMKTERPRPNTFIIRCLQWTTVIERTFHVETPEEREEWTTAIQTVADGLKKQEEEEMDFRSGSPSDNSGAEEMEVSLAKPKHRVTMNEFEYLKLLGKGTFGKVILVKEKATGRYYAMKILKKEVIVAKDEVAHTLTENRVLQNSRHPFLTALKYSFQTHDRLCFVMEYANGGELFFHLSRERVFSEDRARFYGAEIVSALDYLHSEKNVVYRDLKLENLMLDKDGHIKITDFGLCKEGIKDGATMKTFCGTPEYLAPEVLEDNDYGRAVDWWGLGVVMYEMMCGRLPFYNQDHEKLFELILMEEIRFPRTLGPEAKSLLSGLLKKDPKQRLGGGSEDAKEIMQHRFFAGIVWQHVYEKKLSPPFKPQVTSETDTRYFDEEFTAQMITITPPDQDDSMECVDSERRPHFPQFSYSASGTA

[2] = tested on: MCF-7 human breast cancer xenografts; assay: in vivo; assay type: in vivo; conditions: for T/C: p<0.05
Excerpt: (§1) Also, the relative ability of D-3-deoxy-PtdIns and OMDPI, when administered i.p. as a daily micellar suspension to inhibit the growth of MCF-7 human breast cancer xenografts in SCID mice, was further evaluated. […] […]. These were the maximum tolerated doses that could be given by these schedules. […].

[3] = Preliminary toxicology in BALB/C mice; assay type: in vivo, male BALB/C mice; conditions: for Weight Change %: killed 24 hr after last dose
Description: In order to evaluate clinical safety, toxicity tests were conducted by administering DPI or OMDPI to groups of 4 male BALB/C mice daily by i.p. injection for 5 days at the maximum tolerated dose. […] Moreover, there was a 33% decrease in total white blood cell count. It should be noted, however, that this is not sufficient for a cytotoxic drug to be considered myelosuppresive.
As discussed, Table 4 contains the toxicity results obtained with groups of 4 male BALB/C mice, which were administered the compounds daily by i.p. injection for 5 days at the doses shown and killed 24 hr after the last dose. Values are mean±S.E. The p values are shown only where there was a significant difference to control.

HT-29 colon cancer cells [4] = conditions: as reported earlier (J. Med. Chem. 1995; U.S. Pat. No. 5,227,508); read-out: IC50 for inhibition of colony formation by HT-29 human colon carcinoma cells; cited from earlier work
HT-29 human colon cancer = assay: Anti-tumor activity against established HT-29 human colon cancer in SCID mice; conditions: for T/C % / Tumor volume on day 10: qd 4-7; for Tumor volume on day 10: mean of 8 mice with S.E.
[5] = molecular target: T1, bovine brain p110/p85 PI-3-kinase (Bos taurus, UniProt P32871); assay: In vitro inhibition of bovine brain p110/p85 PI-3-kinase; assay type: biochemical
T1 construct: from tissue; host or cells: bovine brain
T1 sequence (P32871 whole entry): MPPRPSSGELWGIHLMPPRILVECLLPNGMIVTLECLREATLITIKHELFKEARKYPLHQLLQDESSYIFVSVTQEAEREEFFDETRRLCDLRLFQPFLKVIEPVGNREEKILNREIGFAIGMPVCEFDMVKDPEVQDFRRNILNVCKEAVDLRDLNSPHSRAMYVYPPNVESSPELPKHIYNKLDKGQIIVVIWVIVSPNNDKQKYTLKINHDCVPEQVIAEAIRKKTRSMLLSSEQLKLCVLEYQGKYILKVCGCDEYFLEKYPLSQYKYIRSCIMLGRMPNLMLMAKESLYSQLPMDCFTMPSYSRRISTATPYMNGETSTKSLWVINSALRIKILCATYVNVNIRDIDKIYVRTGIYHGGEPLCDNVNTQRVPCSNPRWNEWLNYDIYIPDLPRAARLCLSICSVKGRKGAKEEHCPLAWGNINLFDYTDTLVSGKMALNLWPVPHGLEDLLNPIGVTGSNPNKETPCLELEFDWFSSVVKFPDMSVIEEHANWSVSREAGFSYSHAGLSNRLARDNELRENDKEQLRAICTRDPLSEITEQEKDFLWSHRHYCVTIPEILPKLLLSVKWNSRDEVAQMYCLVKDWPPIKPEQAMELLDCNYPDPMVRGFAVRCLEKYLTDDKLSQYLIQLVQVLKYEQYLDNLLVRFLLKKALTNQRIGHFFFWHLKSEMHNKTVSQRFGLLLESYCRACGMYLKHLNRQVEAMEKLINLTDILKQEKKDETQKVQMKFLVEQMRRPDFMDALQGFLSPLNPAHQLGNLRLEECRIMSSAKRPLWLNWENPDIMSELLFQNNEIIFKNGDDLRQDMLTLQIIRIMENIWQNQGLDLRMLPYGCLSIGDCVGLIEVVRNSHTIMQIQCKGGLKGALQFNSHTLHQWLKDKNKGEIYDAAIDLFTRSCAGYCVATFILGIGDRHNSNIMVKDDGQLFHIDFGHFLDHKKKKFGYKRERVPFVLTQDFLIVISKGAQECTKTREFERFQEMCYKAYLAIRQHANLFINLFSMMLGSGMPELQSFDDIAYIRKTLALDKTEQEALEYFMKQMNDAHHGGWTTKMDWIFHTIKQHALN
T1 sequence (P23727 whole entry partner): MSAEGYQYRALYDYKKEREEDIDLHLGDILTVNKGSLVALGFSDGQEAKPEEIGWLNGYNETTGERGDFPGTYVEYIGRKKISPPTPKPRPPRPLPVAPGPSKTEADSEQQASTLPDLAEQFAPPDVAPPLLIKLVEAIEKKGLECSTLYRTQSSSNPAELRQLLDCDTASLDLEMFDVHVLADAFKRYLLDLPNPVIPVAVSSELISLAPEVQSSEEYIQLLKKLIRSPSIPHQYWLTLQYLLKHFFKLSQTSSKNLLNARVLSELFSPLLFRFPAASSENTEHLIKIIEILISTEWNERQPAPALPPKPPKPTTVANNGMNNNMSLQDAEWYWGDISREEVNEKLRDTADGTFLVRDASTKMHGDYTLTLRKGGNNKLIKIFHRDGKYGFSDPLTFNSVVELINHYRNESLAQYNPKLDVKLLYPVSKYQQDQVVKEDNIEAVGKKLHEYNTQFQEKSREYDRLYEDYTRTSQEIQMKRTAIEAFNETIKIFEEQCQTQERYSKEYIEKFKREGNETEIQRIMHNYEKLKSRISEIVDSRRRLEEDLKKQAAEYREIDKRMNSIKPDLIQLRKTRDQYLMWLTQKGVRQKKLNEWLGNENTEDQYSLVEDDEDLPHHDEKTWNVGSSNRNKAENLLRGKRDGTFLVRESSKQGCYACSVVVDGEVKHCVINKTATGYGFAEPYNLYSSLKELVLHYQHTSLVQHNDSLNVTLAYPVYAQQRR
Excerpt: Schultz et al.; Anticancer Res., 15:1135-1140 (1995)).

in vivo = assay type: in vivo; conditions: SCID, mouse, in vivo, ip, read-out: maximum tolerated dose
Excerpt: as §1

Aqueous solubility = assay type: physicochemical; conditions: aqueous with cosolvent or surfactant or cyclodextrin; in 0.1% Tween 20, opalescent solution
Excerpt: Therefore, OMDPI should be readily formulated for intravenous use, should this be determined to be the optimal route for clinical administration.

[6] = administered orally as well as parenterally; cited from earlier work
[7] = 300 mg/kg i.p. daily for 5 days
[8] = 100 mg/kg i.p. daily for 5 days
[9] = 100 mg/kg i.p. daily for 5 days, listed as OMDPI
[10] = 100 mg/kg i.p. daily for 5 days, listed as deoxy-PtdIns Ether Lipid
[11] = maximum tolerated dose i.p. daily for 5 days

Work on 2,3-dideoxy-PtdIns yielded an IC50 (HT-29 colon cancer cells [1]) of 50 ± 7 µM.

With “3-chloro-3-deoxy-PtdIns [reference compound]” the “growth inhibition at maximum tested concentration” value (HT-29 colon cancer cells [1]; HT-29 colony formation) was less than 20%.

In the case of CCCCCCCCCCCCCCCCCCOC[C@H](COP(=O)(O)OC1C(O)C(O)C(O)C(O)C1O)OC (some centres unmarked) [1-O-octadecyl-2-O-methyl-sn-glycero-3-phospho-myo-inositol], the “inhibition of cancer cell growth” value (HT-29 colon cancer cells [1]; in words) is listed as “only a weak inhibitor”, the “PI-PLC IC50” value (bovine PI-PLC; same assay conditions as Table 2) is listed as “poor inhibitor” and the IC50 (PI-3kinase) is listed as 90 µM.

With CCCCCCCCCCCCCCCC(=O)OCC(COP(=O)(O)OC1C(O)CC(O)C(O)C1O)OC(=O)CCCCCCCCCCCCCCC (centres unmarked) [(30), 3-deoxy-phosphatidyl-myo-inositol, reference compound] the IC50 (HT-29 colon cancer cells [1]) was 35 µM, the Akt activation (human Akt) was “blocks the activation of Akt; also recorded: blocked Akt activation” and the “PtdIns-PLC IC50” value (bovine PI-PLC) was “N/A (N/A = not active, with <20% inhibition at 100 gM.)”. It also gave a T/C ([2]; i.p. daily micellar suspension, dose not given) of 62%, an ALT [3, 7] of 30.5 and a BUN [3, 7] of 15.7. The “Platelets × 10^6” value [3, 7] was 0.9 × 10^6, the “Total Protein” value [3, 7] was 4.6 and the White blood cells [3, 7] was 7.9. For the same molecule, the “Weight Change %” value [3, 7] was −4.3 ± 1.9%, the IC50 (HT-29 colon cancer cells [4]) was 35 µM and the T/C % (HT-29 human colon cancer; 250 mg/kg i.p.) was 111.1%. For the same molecule, the “Tumor volume on day 10” value (HT-29 human colon cancer; 250 mg/kg i.p.) was 0.30 ± 0.06 cm^3, the lethality (HT-29 human colon cancer; 500 mg/kg i.p., qd 4-5) was “lethal” and the anti-tumor activity (HT-29 human colon cancer; half of 500 mg/kg daily i.p.) was “no anti-tumor activity”.

For CCCCCCCCCCCCCCCC(=O)OCC(COP(=O)(O)OC1C(O)C(O)C(O)C(F)C1O)OC(=O)CCCCCCCCCCCCCCC (centres unmarked) [(35), 3-Fluoro-3-deoxy-PtdIns, reference compound], the IC50 (HT-29 colon cancer cells [1]) is given as 37 µM and the IC50 (HT-29 colon cancer cells [4]) is given as 37 µM.

In the case of CCCCCCCCCCCCCCCC(=O)OCC(CCP(=O)(O)OC1C(O)CC(O)C(O)C1O)OC(=O)CCCCCCCCCCCCCCC [(50), 1-O-[(3S)-3,4-bis(palmitoyloxy)butylphosphonyl]-1D-3-deoxy-myo-inositol], the “fold increase in growth inhibitory activity compared to DPI” value (HT-29 colon cancer cells [1]; HT-29 colony formation, versus (30)) is reported as > 3 fold and ~3 fold, the IC50 (HT-29 colon cancer cells [1]; Homo sapiens, 168 h) is reported as 10 µM and the “PtdIns-PLC IC50” value (bovine PI-PLC) is reported as “N/A (N/A = not active, with <20% inhibition at 100 gM.)”. The “PI-3-K IC50” value [5] was “N/A (N/A = not active, with <20% inhibition at 100 gM.)”.

In the case of CCCCCCCCCCCCCCCCCCOCC(COP(=O)(O)OC1C(O)CC(O)C(O)C1O)OC (centres unmarked) [(60), 1-O-(2-O-methyl-1-O-octadecyl-sn-glycero-3-phospho)-1D-3-deoxy-myo-inositol], the IC50 (HT-29 colon cancer cells [1]; listed as OMDPI (60)) is reported as 2.1 ± 0.1 µM, the IC50 (HT-29 colon cancer cells [1]; Homo sapiens, HT-29, 168 h) is reported as 2 µM and the MTD at 5 days (in vivo; daily i.p. for 5 days) is reported as 100 mg/kg. The MTD at 10 days (in vivo; daily i.p. for 10 days) was 75 mg/kg, the T/C ([2]; 75 mg/kg i.p. for 10 days) was 20% and the T/C ([2]; 100 mg/kg i.p. for 5 days) was 39%. For the same molecule, the “inhibition of the growth of MCF-7 breast cancer” value ([2]; 4 or 5 day daily i.p. schedule) was 60%, the “inhibition of the growth of MCF-7 breast cancer xenografts” value ([2]; 10 day schedule) was 80% and the ALT [3, 8] was 32.7. The BUN [3, 8] was 18.7, the “Total Protein” value [3, 8] was 4.9 and the White blood cells [3, 8] was 5.8. The “Weight Change %” value [3, 9] was “no effect”, the “Weight Change %” value [3, 10] was “+2.3 ± 1.5%” and the “Platelets × 10^6” value [3, 9] was “no effect”. For the same molecule, the “Platelets × 10^6” value [3, 10] was 0.9 × 10^6, the “liver, renal toxicity” value ([3]; in words) was “not liver or renal toxic” and the myelosuppression ([3]; in words) was “only weakly myelosuppresive”. For the same molecule, the “decrease in total white blood cell count” value [3, 11] was 33%, the “serum liver or kidney enzymes” value [3, 11] was “did not result in elevation” and the solubility (Aqueous solubility) was no less than 10000 µg/mL. The T/C % (HT-29 human colon cancer; 50 mg/kg i.p.) was 103.7%, the “Tumor volume on day 10” value (HT-29 human colon cancer; 50 mg/kg i.p.) was 0.258 ± 0.05 cm^3 and the T/C % (HT-29 human colon cancer; 100 mg/kg i.p.) was 118.0%. The “Tumor volume on day 10” value (HT-29 human colon cancer; 100 mg/kg i.p.) was 0.32 ± 0.09 cm^3, the T/C % (HT-29 human colon cancer; 150 mg/kg i.p.) was 33.3% and the “Tumor volume on day 10” value (HT-29 human colon cancer; 150 mg/kg i.p.) was 0.09 ± 0.07 cm^3. The “toxicity at the highest dose tested” value (HT-29 human colon cancer; 150 mg/kg per day i.p.) was “not toxic”, the “inhibition of tumor growth” value (HT-29 human colon cancer; 150 mg/kg per day, 4 daily i.p. injections) was 67% and the anti-tumor activity (HT-29 human colon cancer; 100 and 50 mg/kg per day i.p.) was “did not elicit anti-tumor activity”.

CCCCCCCCCCCCCCCCCCOCC(CCP(=O)(O)OC1C(O)CC(O)C(O)C1O)OC [(90), 1-O-[(3S)-methoxy-4-(octadecyloxy)butylphosphonyl]-1D-3-deoxy-myo-inositol] gave an IC50 (HT-29 colon cancer cells [1]; Homo sapiens, 168 h) of 45 µM.

For O=P1(N(CCCl)CCCl)NCCCO1 (centres unmarked) [cyclophosphamide, reference compound], the “inhibition of the growth of MCF-7 xenografts” value ([2]; 265 mg/kg on day 5, positive control) was 43%.

In the case of CCCCCCCCCCCCCCCCOP(=O)([O-])OCC[N+](C)(C)C [mitelfosine, hexadecylphosphocholine], the clinical anti-tumor activity [6] is given as “have shown clinical anti-tumor activity”.
